Here are results for 94 molecules from PubChem BioAssay AID2610 (Broad Institute, 2010).

Structures are written as SMILES. Records with an inconclusive call do not appear. Active and inactive are the calls of the source.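 How the source made its calls: active means EC50 no more than tenfold above the top concentration tested, with valid fit and all samples agreeing; inconclusive means flat fit at 30 to 70% inhibition, poor fit, or split samples; inactive means EC50 beyond tenfold the top concentration tested.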

In the assay the test system is BJeLR fibroblast viability, Alamar Blue fluorescence, 48 h. As to the kind of experiment: BJeLR fibroblast growth inhibition, viability readout – cell-based, alamar blue fluorescence, 48 h, cherrypicked samples, dose response (AID 2610).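 Further: BJ fibroblasts with hTERT plus SV40 large and small T and HRAS V12; EC50 for loss of viable cells so potency reflects cytotoxic compounds.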 In general terms: The colour change of resazurin is a common sign of viable cells or microbes.
As a reminder, the EC50 is the concentration at which the effect is half-maximal. On to `Cc1ccc(C2=NN(C(=O)CCl)C(c3ccco3)C2)o1` (centres undefined), for which the EC50 is 1600 nM. On to `COc1ccc(COC(=O)c2cc([N+](=O)[O-])ccc2N2CCOCC2)cc1F`, for which the EC50 was less than 104 nM. The result for `O=C(CCl)N(CCCNC(=O)C(F)(F)F)c1ccc([N+](=O)[O-])cc1` reads 424 nM; that for `c1cnc2c(c1)ccc1cccnc12`, 5560 nM. Consider `CCc1ccc(CCC(=O)Nc2ncc(Cc3ccccc3Cl)s2)o1`, for which the 50% effective concentration (EC50) is 1060 nM. Take `CCOc1ccc(C(=O)c2cc([N+](=O)[O-])ccc2N2CCOCC2)cc1`: the EC50 was less than 104 nM. To `CC(C)c1cc(C(=O)N/N=C/C(Br)=C/c2ccccc2)n[nH]1` belongs 958 nM; to `O=S(=O)(c1ccc2c(c1)C(=NO)c1cc(S(=O)(=O)N3CCCCC3)ccc1-2)N1CCCCC1`, less than 277 nM; to `O=Cc1ccc(O)c2ncccc12`, 463 nM. To `CCOc1ccc(N=Cc2c(C)[nH]n(-c3nc4ccccc4[nH]3)c2=O)cc1` belongs > 13300 nM (inactive); to `COc1cc(C2CC(c3cccs3)=NN2C(=O)CCl)ccc1OC(F)F` (centres undefined), 271 nM; to `CCCCCCCCCCCCn1ccc(=N)cc1`, 522 nM. The result for `O=Cc1cc2ccccc2nc1SCc1ccc(Cl)cc1` reads less than 104 nM.

Regarding `CC(=O)c1ccc(Oc2cc(C)nc(-n3nc(C)cc3C)n2)cc1`, the concentration for a half-maximal effect (EC50) was less than 104 nM. The result for `COc1ccc2[nH]c(=O)c(CN(Cc3cccs3)S(=O)(=O)c3cccc4nsnc34)cc2c1` reads 1460 nM. To `Cc1ccc(Nc2nc(N)nc(CCl)n2)c(C)c1` belongs 388 nM. The result for `O=C(CCl)N=c1sccn1Cc1ccccc1Cl` reads less than 88.2 nM; that for `CC1(C)N=C(N)N=C(N)N1c1ccccc1`, > 13300 nM (inactive); that for `COc1ccccc1C(=O)Nc1nc2ccccc2[nH]1`, > 13300 nM (inactive). For `COc1ccc2nc(NC(=O)c3ccoc3C)sc2c1`, the EC50 was > 13300 nM (inactive).

Regarding `COc1cccc(CSc2nc3ccccc3cc2C=O)c1`, the concentration for a half-maximal effect (EC50) was 111 nM. For the molecule `CN(C)CCNC(=O)c1cc2c(s1)-c1ccc(Cl)cc1SC2`, the EC50 was 1120 nM. To `CN(C)CCCNc1c2ccccc2nc2ccccc12` belongs 506 nM; to `CCCC(=O)OCCNc1cc(Sc2nccn2C)c2nonc2c1[N+](=O)[O-]`, 2510 nM; to `COc1ccc(C(C(=O)NC2CCCCC2)N(C(=O)CCl)c2ccc(C)cc2)cc1` (centres undefined), 454 nM. To `Cc1ccc(C(C)C)c(OCc2ccc(C(=O)N/N=C/c3cccc(O)c3O)cc2)c1` belongs 496 nM; to `CCOc1ccc(OCc2cccc(C(=O)O)c2)cc1`, > 13300 nM (inactive); to `COc1ccc(S(=O)(=O)N2CCOCC2)cc1NC(=O)CCNC(=O)c1ccc(Br)cc1`, 440 nM. To `O=C(N/N=C/c1cccs1)c1cc(-c2ccncc2)nc2ccccc12` belongs 113 nM; to `O=C(c1cccs1)c1no[n+]([O-])c1C(=O)c1cccs1`, 2990 nM; to `CCc1ccc(NC(=O)[C@H](Cc2c[nH]c3ccccc23)NC(=O)[C@@H]2Cc3ccccc3CN2)cc1`, > 13300 nM (inactive).

Consider `O=C(N/N=C/c1cccnc1)c1ccc(NC(=O)C(c2ccccc2)c2ccccc2)cc1`, for which the EC50 was 344 nM. The result for `O=C(N/N=C/c1ccccc1Cl)c1[nH]c2ccc(Br)cc2c1-c1ccccc1` reads 149 nM; that for `Cc1ccc(-c2nnc(SCC(=O)Nc3ccccc3F)o2)cc1`, > 13300 nM (inactive); that for `Cc1ccc(N(C(=O)CCl)C(C(=O)NC2CCCCC2)c2cccnc2)cc1C` (centres undefined), less than 89.2 nM. `CCCCOc1ccc(Br)cc1/C(C)=N/NC1=NCCN1`: the EC50 is 585 nM. To `CCOC(=O)/C(=C\c1cccnc1)C(=O)c1cc(C(C)=O)c(Nc2ccccc2)s1` belongs 575 nM; to `O=C(CCl)Nc1cc(SCC(O)CO)cc([N+](=O)[O-])c1` (centres undefined), 997 nM. Consider `C[C@@H]1C[C@H]2OC(=O)C3(CO3)[C@H]2[C@H](O)[C@]2(C)C(=O)C3OC3[C@@H]12` (some centres undefined), for which the EC50 is 2830 nM. The result for `COc1ccccc1-n1cnc2cc(NCc3cccs3)ccc21` reads less than 104 nM; that for `C/C(=N\Nc1ccc2nncn2n1)c1ccccn1`, 1140 nM. The result for `C[C@@H]1O[C@@H](O[C@H]2C[C@@H](O)[C@]3(CO)[C@H]4[C@H](O)C[C@]5(C)[C@@H](C6COC(=O)C6)CC[C@]5(O)[C@@H]4CC[C@]3(O)C2)[C@H](O)[C@H](O)[C@H]1O` (some centres undefined) reads 802 nM. As for `COc1ccc(-c2cc3nc(C)cc(N)n3n2)cc1`, the EC50 was > 13300 nM (inactive). Take `CCSc1cc(C2C(C#N)=C(N)Oc3n[nH]c(C)c32)c(C)o1` (centres undefined): the EC50 is 11500 nM. Consider `Cc1c(C(=O)OCC(=O)N2CC(=O)Nc3ccccc32)oc2ccc(Br)cc12`, for which the EC50 is > 13300 nM (inactive).

Regarding `Nc1nc(CCl)nc(N(c2ccccc2)c2ccccc2)n1`, the EC50 is 121 nM. `O=c1cnnc(N/N=C/c2ccccn2)[nH]1`: the EC50 was 1030 nM. Consider `Nc1nc(F)nc2c1ncn2[C@@H]1O[C@H](CO)[C@@H](O)[C@H]1O`, for which the EC50 was 151 nM. With `CC(=O)Nc1ccc(/C=N/Nc2nc3ccccc3[nH]2)cc1`, the EC50 is > 13300 nM (inactive). Turning to `CCN1C/C(=C/c2ccc(OC)c(O)c2)C(=O)/C(=C/c2ccc(OC)c(O)c2)C1`, the 50% effective concentration (EC50) was 472 nM. On to `C(=N\Nc1nc2ccccc2[nH]1)/c1ccc2ncccc2c1`, for which the EC50 is > 13300 nM (inactive). Turning to `Cc1cc(C)cc(NS(=O)(=O)c2ccc(-c3cnc(C4CC4)o3)cc2)c1`, the EC50 was less than 104 nM.

Take `CCN1CCN(CCNC(=O)c2ccc(/C=C3/Sc4ccccc4N(Cc4ccccc4C)C3=O)cc2)CC1`: the EC50 was > 13300 nM (inactive). Turning to `COc1cc2c(cc1OC)C(c1cc(Br)ccc1F)N(C(=O)CCl)CC2` (centres undefined), the 50% effective concentration (EC50) was 1310 nM. To `CCN1/C(=C/c2ccc3ccccc3[n+]2CC)C=Cc2ccccc21` belongs 726 nM. To `CCOc1ccccc1C(=O)N1CCN(c2cccc(Cl)c2)CC1` belongs less than 104 nM; to `COc1ccc(F)cc1CN1CCN(C(=O)CCC(=O)Nc2nnc(CC(C)C)s2)CC1`, > 13300 nM (inactive); to `COc1ccc(C(=O)N/N=C(\C)c2ccccn2)cc1OC`, 795 nM. As to `O=C(N/N=C/c1cc2c3c(c1O)CCCN3CCC2)c1ccccc1O`, the EC50 is 755 nM.

Consider `Cc1ccccc1Nc1nc(N)nc(CCl)n1`, for which the EC50 is 2290 nM. On to `CCOC(=O)c1[nH]c(C)c(C(=O)N2CCc3ccccc32)c1C`, for which the EC50 was less than 104 nM. The result for `COC(=O)C1CC23C=CCN4CCC5(c6ccccc6NC15C2C)C43` (centres undefined) reads less than 104 nM; that for `O=C(c1ccc2c3n(nc2c1)-c1ccccc1CO3)N1CCOCC1`, > 13300 nM (inactive). To `CC1C/C(=C/c2ccncc2)C(=O)/C(=C/c2ccncc2)C1` (centres undefined) belongs 400 nM. Regarding `COc1ccc2nc(C)cc(N/N=C/c3ccc(F)cc3)c2c1`, the EC50 was 292 nM.

With `CC1=CC(=O)C=C(C)C1=NOS(=O)(=O)c1ccccc1`, the concentration for a half-maximal effect (EC50) was 3010 nM. To `Cc1nc(N)nc(N)c1CCCc1ccc(Cl)c(Cl)c1` belongs > 13300 nM (inactive); to `O=C(CSc1ccccn1)NCc1ccc2c(c1)OCO2`, > 13300 nM (inactive). Take `COc1ccc(OC)c2c1C(=O)C(Cl)=C(Cl)C2=O`: the EC50 is 2980 nM. For the molecule `COc1ccc(C2C(O)C(c3c[nH]c4ccccc34)=NN2C(=O)CCl)cc1` (centres undefined), the EC50 was 307 nM. The result for `O=C1N(c2ccccc2)C[C@@H]2C[C@@H](c3cc4ccccc4o3)N3CCC[C@@]123` reads 610 nM; that for `Cc1cc2nc(/C=C/c3cccnc3)[nH]c2cc1C`, less than 104 nM; that for `Nc1ccc2c(c1)C(=O)C(=O)c1ccccc1-2`, 1720 nM. To `CC1=CC(C)(C)N(S(=O)(=O)c2ccc(C)cc2)c2cc(C)ccc21` belongs 386 nM; to `N#CC1=C(N)Oc2cc(N)ccc2C1c1cccc(Br)c1` (centres undefined), 318 nM; to `C=C1C(=O)O[C@@H]2C[C@@H](C)[C@@H]3C=CC(=O)[C@@]3(C)[C@@H](OC(=O)CC(=O)O[C@H]3[C@@H]4C(=C)C(=O)O[C@@H]4C[C@@H](C)[C@@H]4C=CC(=O)[C@]43C)[C@H]12`, less than 41.7 nM. To `C=C1C(=O)O[C@@H]2C[C@@H](C)[C@H]3C=CC(=O)[C@]3(O)C[C@@H]12` belongs 4550 nM; to `O=C(NC(Nc1nc2ccc([N+](=O)[O-])cc2s1)(C(F)(F)F)C(F)(F)F)c1ccccc1Cl`, 427 nM; to `COc1ccc(/C=C2\CN(Cc3ccccc3)C/C(=C\c3ccc(OC)c(O)c3)C2=O)cc1O`, 559 nM. On to `CCN1/C(=C\C=C\C2=[N+](CC)c3ccccc3C2(C)C)C(C)(C)c2ccccc21`, for which the EC50 is 239 nM. For the molecule `COc1ccc(/C=C/c2cc(-c3ccc(C)cc3)o[n+]2C)cc1`, the half-maximal effective concentration (EC50) was 654 nM. The result for `Cc1cccc(N(C)S(=O)(=O)c2ccc(-c3cnc(C4CC4)o3)cc2)c1` reads less than 104 nM. On to `C[C@]12CCC3C(CCC4=CC(O)CC[C@@]43/C=N/O)C1(O)CCC2C1=CC(=O)OC1` (some centres undefined), for which the EC50 is 294 nM. Regarding `O=[N+]([O-])c1cc(Br)c(Nc2ccccc2)c([N+](=O)[O-])c1`, the EC50 is 537 nM. For the molecule `CC1=CC(=O)C=C(C)C1=NOc1ccccc1[N+](=O)[O-]`, the EC50 was 670 nM. Take `CC[C@@]1(O)C(=O)OCc2c1cc1n(c2=O)Cc2cc3c(NC(=O)CN)cccc3nc2-1`: the concentration giving a half-maximal response (EC50) was 292 nM.

With `Oc1c(N=Nc2ccccn2)ccc2ccccc12`, the EC50 was 241 nM. The result for `Cc1nc2ccc(CN(C)c3ccc(C(=O)N[C@@H](CCC(=O)O)C(=O)O)s3)cc2c(=O)[nH]1` reads > 13300 nM (inactive); that for `COc1cccc(NC(=O)n2ncc3c(C)cccc32)c1`, > 13300 nM (inactive); that for `Cc1cccc(Nc2nc(N)nc(CCl)n2)c1`, 2210 nM.

In the case of `CCN1CCc2c(sc(NC(=O)c3cc4ccccc4cc3OC)c2C(N)=O)C1`, the 50% effective concentration (EC50) was 588 nM. On to `Cc1nc(N)nc(N)c1/C=C/C(C)(C)c1ccc(Cl)cc1`, for which the EC50 is > 13300 nM (inactive). With `O=[N+]([O-])c1ccc(N=Nc2ncc[nH]2)cc1`, the concentration for a half-maximal effect (EC50) was 2370 nM.

Regarding `COc1cc2c(c(OC)c1OC)-c1ccc(N(C)CC(OC)OC)c(=O)cc1[C@@H](NC(C)=O)CC2`, the EC50 was 180 nM.
